Earlier results, collected in US7615672B2, “Process for the preparation of n-heneicosane” (Defence Research & Development Organisation, priority 2005, dated 2009).

Test system: Aedes aegypti
Conditions: oviposition attractant pheromone

Compound: CCCCCCCCCCCCCCCCCCCCC [n-heneicosane]
- concentration at which n-heneicosane attracts Aedes aegypti mosquitoes: less than 100 ppm
